“And” between values parts separate entries of the source, which are not always exact repeats. Equal values may be shown once. Toxic doses and inconclusive results are not listed. The calls were made as follows: active = survival T/C of 150% or more; inactive = T/C below 125% in these data. Peptide text beside a SMILES is read from it.
Tested on: P388 leukemia ip, CD2F1 mice, survival T/C
Assay: NCI In Vivo Anticancer Drug Screen. Data for tumor model P388 Leukemia (intraperitoneal) in CD2F1 (CDF1) mice
Settings: endpoint: median survival time, higher = longer survival
Outline: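 Mice carrying the transplanted tumor received test compound or vehicle. Survival was recorded in each group, and the value is the treated-group measurement divided by that of the vehicle-treated control group.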

[1] = dose: 6.25 mg/kg/injection, schedule: Q01DX005 (ip), vehicle: Klucel (hydroxypropylcellulose) (HPC)
[2] = dose: 12.5 mg/kg/injection, schedule: Q01DX005 (ip), vehicle: Klucel (hydroxypropylcellulose) (HPC)
[3] = dose: 25.0 mg/kg/injection, schedule: Q01DX005 (ip), vehicle: Klucel (hydroxypropylcellulose) (HPC)
[4] = dose: 50.0 mg/kg/injection, schedule: Q01DX005 (ip), vehicle: saline
[5] = dose: 50.0 mg/kg/injection, schedule: Q01DX009 (ip), vehicle: saline
[6] = dose: 100.0 mg/kg/injection, schedule: Q01DX009 (ip), vehicle: saline
[7] = dose: 200.0 mg/kg/injection, schedule: Q01DX009 (ip), vehicle: saline
[8] = dose: 100.0 mg/kg/injection, schedule: Q01DX005 (ip), vehicle: saline
[9] = dose: 200.0 mg/kg/injection, schedule: Q01DX005 (ip), vehicle: saline
[10] = dose: 25.0 mg/kg/injection, schedule: Q01DX005 (ip), vehicle: saline with Tween-80
[11] = dose: 100.0 mg/kg/injection, schedule: Q04DX002 (ip), vehicle: saline with Tween-80
[12] = dose: 200.0 mg/kg/injection, schedule: Q04DX002 (ip), vehicle: saline with Tween-80
[13] = dose: 50.0 mg/kg/injection, schedule: Q04DX002 (ip), vehicle: saline with Tween-80

Measured: T/C

CC(=O)O.CC(=O)O.CC[OH+]CC[OH+]CC[OH+]C1CCCC2CCC[N-]C21.[Zn] (centres undefined)
inactive: [1] 111 % of control | [2] 105 % of control and 113 % of control (2×) | [3] 109 % of control and 113 % of control and 116 % of control

C/C=C(/C)C(=O)OC1CC(C)=CC(OC(=O)/C(C)=C\C)[C@]2(C)C1[C@](O)(C(C)C)C[C@H]2OC(C)=O (some centres undefined)
inactive: dose: 5.0 mg/kg/injection, schedule: Q01DX005 (ip), vehicle: Klucel + Tween-80 95 % of control | dose: 10.0 mg/kg/injection, schedule: Q01DX005 (ip), vehicle: Klucel + Tween-80 97 % of control | dose: 20.0 mg/kg/injection, schedule: Q01DX005 (ip), vehicle: Klucel + Tween-80 100 % of control | dose: 40.0 mg/kg/injection, schedule: Q01DX005 (ip), vehicle: Klucel + Tween-80 91 % of control

CC(ON)C(=O)O (centres undefined)
inactive: dose: 6.25 mg/kg/injection, schedule: Q01DX005 (ip), vehicle: saline 96 % of control | dose: 12.5 mg/kg/injection, schedule: Q01DX005 (ip), vehicle: saline 102 % of control | dose: 25.0 mg/kg/injection, schedule: Q01DX005 (ip), vehicle: saline 102 % of control | [4] 99 % of control

Clc1ccc(N=Cc2ccc(C=Nc3ccc(Cl)cc3Cl)cc2)c(Cl)c1
inactive: dose: 12.5 mg/kg/injection, schedule: Q01DX009 (ip), vehicle: saline 94 % of control | dose: 25.0 mg/kg/injection, schedule: Q01DX009 (ip), vehicle: saline 94 % of control | [5] 100 % of control and 105 % of control | [6] 88 % of control | [7] 92 % of control

CS(=O)(=O)N(C=O)c1ccccc1
inactive: [5] 110 % of control | [6] 100 % of control | [7] 96 % of control

CC(=O)OCC1OC2OC(C)(C)OC2C1O (centres undefined)
inactive: [4] 96 % of control | [8] 100 % of control | [9] 105 % of control

CN(C)C(=O)Nc1cccc2c(NC(=O)N(C)C)cccc12
inactive: dose: 50.0 mg/kg/injection, schedule: Q01DX009 (ip), vehicle: Klucel (hydroxypropylcellulose) (HPC) 100 % of control and 103 % of control | dose: 100.0 mg/kg/injection, schedule: Q01DX009 (ip), vehicle: Klucel (hydroxypropylcellulose) (HPC) 100 % of control (2×) and 93 % of control | dose: 200.0 mg/kg/injection, schedule: Q01DX009 (ip), vehicle: Klucel (hydroxypropylcellulose) (HPC) 99 % of control and 87 % of control | dose: 400.0 mg/kg/injection, schedule: Q01DX009 (ip), vehicle: Klucel (hydroxypropylcellulose) (HPC) 91 % of control

CC12CCC(OC3OC(CO)C(O)C(O)C3O)C=C1CCC1C2CCC2(C)C(c3ccc(=O)oc3)CCC12 (centres undefined)
inactive: [1] 95 % of control | [2] 98 % of control | [3] 101 % of control and 98 % of control

Cc1cc(=O)[nH]c(=O)n1C1OC(CO)C(O)C1O (centres undefined)
inactive: [4] 109 % of control | [8] 103 % of control | [9] 112 % of control

CC(=O)C[n+]1ccc(C)cc1Sc1ccccc1C
inactive: [10] 101 % of control and 103 % of control | dose: 50.0 mg/kg/injection, schedule: Q01DX005 (ip), vehicle: saline with Tween-80 111 % of control and 113 % of control and 122 % of control | dose: 100.0 mg/kg/injection, schedule: Q01DX005 (ip), vehicle: saline with Tween-80 118 % of control and 120 % of control

COC(=O)/C(C#N)=C/c1cc(OC)c(O)cc1Br
inactive: [3] 104 % of control | dose: 50.0 mg/kg/injection, schedule: Q01DX005 (ip), vehicle: Klucel (hydroxypropylcellulose) (HPC) 104 % of control and 88 % of control | dose: 100.0 mg/kg/injection, schedule: Q01DX005 (ip), vehicle: Klucel (hydroxypropylcellulose) (HPC) 105 % of control | dose: 200.0 mg/kg/injection, schedule: Q01DX005 (ip), vehicle: Klucel (hydroxypropylcellulose) (HPC) 100 % of control

CC(C)OS(=O)(=O)c1ccc([N+](=O)[O-])cc1
inactive: [5] 94 % of control | [6] 100 % of control | [7] 105 % of control

O=C(c1ccccc1)c1ccccc1NCC(O)COc1ccc(Cl)cc1C(=O)c1ccccc1 (centres undefined)
inactive: dose: 60.0 mg/kg/injection, schedule: Q01DX005 (ip), vehicle: saline with Tween-80 91 % of control and 96 % of control | dose: 120.0 mg/kg/injection, schedule: Q01DX005 (ip), vehicle: saline with Tween-80 95 % of control | dose: 240.0 mg/kg/injection, schedule: Q01DX005 (ip), vehicle: saline with Tween-80 88 % of control and 90 % of control

Clc1nnc(Cl)s1
inactive: dose: 25.0 mg/kg/injection, schedule: Q01DX009 (ip), vehicle: saline with Tween-80 96 % of control | dose: 50.0 mg/kg/injection, schedule: Q01DX009 (ip), vehicle: saline with Tween-80 95 % of control | dose: 100.0 mg/kg/injection, schedule: Q01DX009 (ip), vehicle: saline with Tween-80 101 % of control

CCOC(=O)C1=S=C(SCCO)N(C)C1=O
inactive: [11] 95 % of control | [12] 103 % of control | dose: 400.0 mg/kg/injection, schedule: Q04DX002 (ip), vehicle: saline with Tween-80 97 % of control

NC(CCC(=O)O)C(=O)NC(CCC(=O)O)C(=O)O (stereo not drawn) (H-Glu-Glu-OH; configuration not given here)
inactive: [4] 97 % of control | [8] 103 % of control | [9] 104 % of control

N#CC(=O)c1ccccc1
inactive: dose: 3.12 mg/kg/injection, schedule: Q04DX003 (ip), vehicle: saline with Tween-80 101 % of control | dose: 6.25 mg/kg/injection, schedule: Q04DX003 (ip), vehicle: saline with Tween-80 100 % of control | dose: 12.5 mg/kg/injection, schedule: Q04DX003 (ip), vehicle: saline with Tween-80 103 % of control and 105 % of control | dose: 400.0 mg/kg/injection, schedule: Q04DX003 (ip), vehicle: saline with Tween-80 101 % of control

O=C1c2cc3cc4ccccc4cc3cc2C(=O)c2c(O)ccc(O)c21
inactive: [13] 90 % of control | [11] 91 % of control | [12] 99 % of control

CCCCCCOC(=O)Nc1nnc(SSC2=NN=CC2NC(=O)OCCCCCC)s1 (centres undefined)
inactive: dose: 100.0 mg/kg/injection, schedule: Q01DX001 (ip), vehicle: saline 91 % of control | dose: 200.0 mg/kg/injection, schedule: Q01DX001 (ip), vehicle: saline 90 % of control | dose: 400.0 mg/kg/injection, schedule: Q01DX001 (ip), vehicle: saline 90 % of control

CC(=O)CCN1C(C#N)CCCC1C#N (centres undefined)
inactive: dose: 6.25 mg/kg/injection, schedule: Q01DX005 (ip), vehicle: saline with Tween-80 102 % of control | dose: 12.5 mg/kg/injection, schedule: Q01DX005 (ip), vehicle: saline with Tween-80 91 % of control | [10] 100 % of control

C[C@H]1C/C=C/[C@H]2[C@@H]3O[C@]3(C)[C@@H](C)[C@H]3[C@H](Cc4ccccc4)NC(=O)[C@]32OC(=O)O/C=C/[C@@](C)(O)C1=O
inactive: dose: 1.25 mg/kg/injection, schedule: Q01DX009 (ip), vehicle: Klucel (hydroxypropylcellulose) (HPC) 99 % of control | dose: 2.5 mg/kg/injection, schedule: Q01DX009 (ip), vehicle: Klucel (hydroxypropylcellulose) (HPC) 94 % of control | dose: 5.0 mg/kg/injection, schedule: Q01DX009 (ip), vehicle: Klucel (hydroxypropylcellulose) (HPC) 97 % of control | dose: 10.0 mg/kg/injection, schedule: Q01DX009 (ip), vehicle: Klucel (hydroxypropylcellulose) (HPC) 88 % of control

C/C(=N\NC(N)=Nc1ccc(C)cc1)c1ccc2c(c1)Cc1ccccc1-2
inactive: dose: 25.0 mg/kg/injection, schedule: Q04DX002 (ip), vehicle: saline with Tween-80 91 % of control | [13] 99 % of control | [11] 97 % of control

O=Nc1ccc(Cn2cc(Br)c(=O)[nH]c2=O)o1
inactive: dose: 25.0 mg/kg/injection, schedule: Q01DX001 (ip), vehicle: Klucel (hydroxypropylcellulose) (HPC) 113 % of control | dose: 50.0 mg/kg/injection, schedule: Q01DX001 (ip), vehicle: Klucel (hydroxypropylcellulose) (HPC) 100 % of control | dose: 100.0 mg/kg/injection, schedule: Q01DX001 (ip), vehicle: Klucel (hydroxypropylcellulose) (HPC) 108 % of control

C[n+]1c(-c2ccccc2)c2ccccn2c1Sc1n2ccccc2c(-c2ccccc2)[n+]1C
inactive: dose: 1.56 mg/kg/injection, schedule: Q01DX009 (ip), vehicle: Klucel (hydroxypropylcellulose) (HPC) 100 % of control | dose: 3.12 mg/kg/injection, schedule: Q01DX009 (ip), vehicle: Klucel (hydroxypropylcellulose) (HPC) 102 % of control | dose: 6.25 mg/kg/injection, schedule: Q01DX009 (ip), vehicle: Klucel (hydroxypropylcellulose) (HPC) 90 % of control and 97 % of control

COC(OC)c1cc(=O)[nH]c(=S)[nH]1
inactive: dose: 50.0 mg/kg/injection, schedule: Q04DX003 (ip), vehicle: saline 95 % of control | dose: 100.0 mg/kg/injection, schedule: Q04DX003 (ip), vehicle: saline 96 % of control | dose: 200.0 mg/kg/injection, schedule: Q04DX003 (ip), vehicle: saline 93 % of control | dose: 400.0 mg/kg/injection, schedule: Q04DX003 (ip), vehicle: saline 104 % of control
